Molecular target: T1, Estrogen Receptor (ERα) in MCF-7 human ductal carcinoma breast cell line (Homo sapiens, UniProt P03372)
T1 construct: endogenous in cells; host or cells: MCF-7
T1 sequence (P03372 1-595): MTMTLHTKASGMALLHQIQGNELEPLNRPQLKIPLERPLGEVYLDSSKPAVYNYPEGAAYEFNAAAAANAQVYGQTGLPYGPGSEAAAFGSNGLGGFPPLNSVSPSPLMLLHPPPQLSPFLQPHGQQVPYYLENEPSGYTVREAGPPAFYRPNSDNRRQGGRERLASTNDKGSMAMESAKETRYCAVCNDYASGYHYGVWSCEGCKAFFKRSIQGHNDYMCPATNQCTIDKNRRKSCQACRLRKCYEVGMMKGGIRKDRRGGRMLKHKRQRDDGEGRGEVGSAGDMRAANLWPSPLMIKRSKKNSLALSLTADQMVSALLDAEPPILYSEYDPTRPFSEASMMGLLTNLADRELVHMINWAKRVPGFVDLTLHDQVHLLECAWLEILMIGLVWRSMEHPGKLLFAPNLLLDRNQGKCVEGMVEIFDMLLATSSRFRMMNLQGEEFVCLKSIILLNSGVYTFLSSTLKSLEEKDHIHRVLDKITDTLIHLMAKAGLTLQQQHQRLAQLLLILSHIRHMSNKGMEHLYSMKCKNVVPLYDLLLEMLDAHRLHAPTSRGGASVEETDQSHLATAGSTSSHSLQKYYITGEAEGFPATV
Experiment: MCF-7 ER degradation assay (cell based immuno-fluorescence)
Conditions: MCF-7 cells; for ER degradation ≥ 90% at 0.3 μM: ER degradation by fulvestrant at 0.3 μM is defined as 100%; for DC50: 18-22 hours incubation, 50% reduction of ERα expression, single experiment or average of two or more, read-out: MCF-7 ER degradation IC50
Procedure, shortened: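 MCF-7 human ductal carcinoma breast cells were seeded at 3.75×10^4 cells per mL (40 μL per well) in 384 well plates with phenol red free DMEM containing 2 mM L-Glutamine and 5% (v/v) Charcoal/Dextran treated foetal calf serum. After overnight culture, compounds were acoustically dispensed, incubated 18-22 hours, then cells were formaldehyde-fixed and immunostained for ERα.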

Cc1ncsc1-c1ccc(CNC(=O)[C@@H]2C[C@@H](O)CN2C(=O)[C@@H](NC(=O)COCCCOCCCCCOc2cc(F)c([C@@H]3c4[nH]c5ccccc5c4C[C@@H](C)N3CC(C)(C)F)c(F)c2)C(C)(C)C)cc1 [Example 138, (2S,4R)-1-((S)-2-(2-(3-((5-(3,5-Difluoro-4-((R,3R)-2-(2-fluoro-2-methylpropyl)-3-methyl-2,3,4,9-tetrahydro-1H-pyrido[3,4-b]indol-1-yl)phenoxy)pentyl)oxy)propoxy)acetamido)-3,3-dimethylbutanoyl)-4-hydroxy-N-(4-(4-methylthiazol-5-yl)benzyl)pyrrolidine-2-carboxamide]
ER degradation ≥ 90% at 0.3 μM: ••
DC50: 1.1 nM

Cc1ncsc1-c1ccc(CNC(=O)[C@@H]2C[C@@H](O)CN2C(=O)[C@@H](NC(=O)CCCCCCOCCCOc2cc(F)c([C@@H]3c4[nH]c5ccccc5c4C[C@@H](C)N3CC(C)(C)F)c(F)c2)C(C)(C)C)cc1 [Example 110, (2S,4R)-1-((S)-2-(7-(3-(3,5-difluoro-4-((1R,3R)-2-(2-fluoro-2-methylpropyl)-3-methyl-2,3,4,9-tetrahydro-1H-pyrido[3,4-b]indol-1-yl)phenoxy)propoxy)heptanamido)-3,3-dimethylbutanoyl)-4-hydroxy-N-(4-(4-methylthiazol-5-yl)benzyl)pyrrolidine-2-carboxamide]
ER degradation ≥ 90% at 0.3 μM: ••
DC50: 1.7 nM

COC(=O)[C@@H](C)CN1[C@H](c2c(F)cc(OCCOCCOCCOCC(=O)N[C@H](C(=O)N3C[C@H](O)C[C@H]3C(=O)NCc3ccc(-c4scnc4C)cc3)C(C)(C)C)cc2F)c2[nH]c3ccccc3c2C[C@H]1C [Example 29]
ER degradation ≥ 90% at 0.3 μM: ••
DC50: 2.4 nM

Cc1ncsc1-c1ccc(CNC(=O)[C@@H]2C[C@@H](O)CN2C(=O)[C@@H](NC(=O)COCCOCCOCCOCCOCCOCC(=O)Nc2ccc([C@@H]3c4[nH]c5ccccc5c4C[C@@H](C)N3CC(C)(C)F)cc2)C(C)(C)C)cc1 [Example 54, N^1-(4-((1R,3R)-2-(2-fluoro-2-methylpropyl)-3-methyl-2,3,4,9-tetrahydro-1H-pyrido[3,4-b]indol-1-yl)phenyl)-N^18—((S)-1-((2S,4R)-4-hydroxy-2-(4-(4-methylthiazol-5-yl)benzylcarbamoyl)pyrrolidin-1-yl)-3,3-dimethyl-1-oxobutan-2-yl)-2,5,8,11,14,17-hexaoxaoctadecane-1,18-dicarboxamide, Trifluoroacetic Acid]
ER degradation ≥ 90% at 0.3 μM: ••
DC50: 1.7 nM

Cc1ncsc1-c1ccc(CNC(=O)[C@@H]2C[C@@H](O)CN2C(=O)[C@@H](NC(=O)COCCc2ccc(COc3cc(F)c([C@@H]4c5[nH]c6ccccc6c5C[C@@H](C)N4CC(C)(C)F)c(F)c3)nc2)C(C)(C)C)cc1 [Example 158, (2S,4R)-1-((S)-2-(2-(2-(6-((3,5-Difluoro-4-((1R,3R)-2-(2-fluoro-2-methylpropyl)-3-methyl-2,3,4,9-tetrahydro-1H-pyrido[3,4-b]indol-1-yl)phenoxy)methyl)pyridin-3-yl)ethoxy)acetamido)-3,3-dimethylbutanoyl)-4-hydroxy-N-(4-(4-methylthiazol-5-yl)benzyl)pyrrolidine-2-carboxamide]
ER degradation ≥ 90% at 0.3 μM: •
DC50: 0.8 nM

Cc1ncsc1-c1ccc(CNC(=O)[C@@H]2C[C@@H](O)CN2C(=O)[C@@H](NC(=O)COCCC(F)(F)CCOc2cc(F)c([C@@H]3c4[nH]c5ccccc5c4C[C@@H](C)N3CC(C)(C)F)c(F)c2)C(C)(C)C)cc1 [Example 130, (2S,4R)-1-((S)-2-(2-((5-(3,5-Difluoro-4-((1R,3R)-2-(2-fluoro-2-methylpropyl)-3-methyl-2,3,4,9-tetrahydro-1H-pyrido[3,4-b]indol-1-yl)phenoxy)-3,3-difluoropentyl)oxy)acetamido)-3,3-dimethylbutanoyl)-4-hydroxy-N-(4-(4-methylthiazol-5-yl)benzyl)pyrrolidine-2-carboxamide]
ER degradation ≥ 90% at 0.3 μM: •
DC50: 0.5 nM

Cc1ncsc1-c1ccc(CNC(=O)[C@@H]2C[C@@H](O)CN2C(=O)[C@@H](NC(=O)COCCCCCOc2cc(F)c([C@@H]3c4[nH]c5ccccc5c4C[C@@H](C)N3CC(C)(C)F)c(F)c2)C(C)(C)C)cc1 [Example 18, (2S,4R)-1-((S)-2-(2-((5-(3,5-Difluoro-4-((1R,3R)-2-(2-fluoro-2-methylpropyl)-3-methyl-2,3,4,9-tetrahydro-1H-pyrido[3,4-b]indol-1-yl)phenoxy)pentyl)oxy)acetamido)-3,3-dimethylbutanoyl)-4-hydroxy-N-(4-(4-methylthiazol-5-yl)benzyl)pyrrolidine-2-carboxamide]
ER degradation ≥ 90% at 0.3 μM: •
DC50: 1 nM

Cc1ncsc1-c1ccc(CNC(=O)[C@@H]2C[C@@H](O)CN2C(=O)[C@@H](NC(=O)COCCCC2CN(CCOc3cc(F)c([C@@H]4c5[nH]c6ccccc6c5C[C@@H](C)N4CC(C)(C)F)c(F)c3)C2)C(C)(C)C)cc1 [Example 47, (2S,4R)-1-((S)-2-(2-(3-(1-(2-(3,5-difluoro-4-((1R,3R)-2-(2-fluoro-2-methylpropyl)-3-methyl-2,3,4,9-tetrahydro-1H-pyrido[3,4-b]indol-1-yl)phenoxy)ethyl)azetidin-3-yl)propoxy)acetamido)-3,3-dimethylbutanoyl)-4-hydroxy-N-(4-(4-methylthiazol-5-yl)benzyl)pyrrolidine-2-carboxamide]
ER degradation ≥ 90% at 0.3 μM: •
DC50: 0.6 nM

Cc1ncsc1-c1ccc([C@@H](CN)NC(=O)[C@@H]2C[C@@H](O)CN2C(=O)[C@@H](NC(=O)COCCOCCOCCOc2cc(F)c([C@@H]3c4[nH]c5ccccc5c4C[C@@H](C)N3CC(C)(C)F)c(F)c2)C(C)(C)C)cc1 [Example 106, (2S,4R)—N-[(1S)-2-amino-1-[4-(4-methylthiazol-5-yl)phenyl]ethyl]-1-[(2S)-2-[[2-[2-[2-[2-[3,5-difluoro-4-[(1R,3R)-2-(2-fluoro-2-methyl-propyl)-3-methyl-1,3,4,9-tetrahydropyrido[3,4-b]indol-1-yl]phenoxy]ethoxy]ethoxy]ethoxy]acetyl]amino]-3,3-dimethyl-butanoyl]-4-hydroxy-pyrrolidine-2-carboxamide]
ER degradation ≥ 90% at 0.3 μM: •
DC50: 0.9 nM

From patent US10519152B2, “Compounds and their use in treating cancer” (AstraZeneca AB, priority 2017, dated 2019)
